In patent US6358921B1, “Antimicrobial peptide compositions and method” (priority 1996, dated 2002):

Experiments:
P. aeruginosa H187 = assay type: cell-based, Pseudomonas aeruginosa; settings: H187
Outline: (§1)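 Peptides are tested by liquid microdilution against strains such as Salmonella C610, E. faecalis ATCC 29212 and sensitive P. aeruginosa H188, with 5×10^5 CFU/mL in LB, overnight at 37 °C. Where a therapeutic index is given, it divides the 4 h complete-hemolysis concentration by the MIC.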

P. aeruginosa H188 = assay type: cell-based, Pseudomonas aeruginosa; settings: H188
Outline: (§2)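 Antimicrobial activity is measured by a liquid-broth assay in LB at 37 °C overnight, starting from 5×10^5 CFU/mL. Values are minimal inhibitory concentrations, i.e. the lowest concentration that stops growth.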

E. coli UB1005 = assay type: cell-based, Escherichia coli; settings: UB1005
Outline: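 Liquid-broth rather than agar method. Organisms: clinical isolates (C. albicans, S. epidermidis), environmental C. xerosis, wild-type E. coli UB1005.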

E. coli DC2 = assay type: cell-based, Escherichia coli; settings: DC2
Outline: as §1

S. typhinurium C587 = assay type: cell-based, Salmonella typhinurium
Outline: as §2

S. typhinurium C610 = assay type: cell-based, Salmonella typhinurium
Outline: as §2

S. aureus K147 = assay type: cell-based, Staphylococcus aureus
Outline: (§3)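 Liquid-broth microdilution: overnight LB cultures at 37 °C, diluted to a final inoculum of 5×10^5 CFU/mL with serial peptide dilutions, incubated overnight at 37 °C. MIC (μg/ml) is the lowest concentration that inhibited growth. Therapeutic index is the concentration giving complete hemolysis at 4 h divided by the MIC.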

S. aureus SAP0017 = assay type: cell-based, Staphylococcus aureus
Outline: as §3

S. epidermidis = assay type: cell-based, Staphylococcus epidermidis
Outline: as §2

B. subtilis = assay type: cell-based, Bacillus subtilis
Outline: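 Liquid-broth microdilution: overnight LB cultures diluted and added to serial peptide dilutions at final 5×10^5 CFU/mL, incubated overnight at 37 °C. MIC is the lowest concentration inhibiting growth; C. albicans a clinical isolate, S. epidermidis clinical, C. xerosis environmental.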

E. faecalis = assay type: cell-based, Enterococcus faecalis
Outline: as §2

C. xeroses = assay type: cell-based, Corynebacterium xerosis
Outline: as §2

C. Albicans = assay type: cell-based, Candida albicans
Outline: as §2

human erythrocytes = experiment: Hemolytic activity; assay type: cell-based
Protocol: Serial dilutions of the peptides in saline were prepared in round bottom microtitre plates using 100 μL volumes. Red blood cells were diluted with saline to 1/25 packed volume of cells and 50 μL added to each well. Plates were incubated with rocking at 37° C., and the concentration required for complete lysis determined visually after 4 h.

[1] = Displacement of dansyl-polymyxin from LPS; assay type: binding, P. aeruginosa; settings: read-out: LPS binding affinity: peptide concentration to displace 50% of dansyl-polymyxin B from LPS; Tables 1, 4, 7
Outline: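 Peptides titrated into 3 μg/mL P. aeruginosa LPS with 2.5 μM dansyl-polymyxin (~90% site saturation) in 5 mM sodium HEPES, pH 7.0; fluorescence decrease recorded. I50 (50% probe displacement) taken from the x-intercept of a double-reciprocal plot of percent inhibition versus inhibitor concentration.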

SMILES | Minimum Inhibitory Concentration (activity) (P. aeruginosa H187) | Minimum Inhibitory Concentration (activity) (P. aeruginosa H188) | Minimum Inhibitory Concentration (activity) (E. coli UB1005) | Minimum Inhibitory Concentration (activity) (E. coli DC2) | Minimum Inhibitory Concentration (activity) (S. typhinurium C587) | Minimum Inhibitory Concentration (activity) (S. typhinurium C610) | Minimum Inhibitory Concentration (activity) (S. aureus K147) | Minimum Inhibitory Concentration (activity) (S. aureus SAP0017) | Minimum Inhibitory Concentration (activity) (S. epidermidis) | Minimum Inhibitory Concentration (activity) (B. subtilis) | Minimum Inhibitory Concentration (activity) (E. faecalis) | Minimum Inhibitory Concentration (activity) (C. xeroses) | Minimum Inhibitory Concentration (activity) (C. Albicans) | Hemolytic activity: peptide concentration for 100% lysis of human erythrocytes (human erythrocytes) | IC50 [1]
CC(C)C[C@@H]1NC(=O)[C@H](C(C)C)NC(=O)[C@H](CC(C)C)NC(=O)[C@@H]2CCCN2C(=O)[C@@H](Cc2ccc(O)cc2)NC(=O)[C@H](C(C)C)NC(=O)[C@H](CC(C)C)NC(=O)[C@H](C(C)C)NC(=O)[C@H](CCCCN)NC(=O)[C@H](CCCCN)NC(=O)[C@@H]2CCCN2C(=O)[C@@H](Cc2ccc(O)cc2)NC(=O)[C@H](CCCCN)NC(=O)[C@H](CCCCN)NC1=O [GS14napol] | 50 µg/mL | 9 µg/mL | 18 µg/mL | 4 µg/mL | 50 µg/mL | 25 µg/mL | >200 µg/mL | 200 µg/mL | 25 µg/mL | >200 µg/mL | 75 µg/mL | 1.2 µg/mL | 37 µg/mL | 800 µg/mL | 98 µM
CC(C)[C@@H]1NC(=O)[C@H](CCCCN)NC(=O)[C@H](C)NC(=O)[C@@H]2CCCN2C(=O)[C@@H](Cc2ccc(O)cc2)NC(=O)[C@H](C(C)C)NC(=O)[C@@H](CCCCN)NC(=O)[C@H](C)NC(=O)[C@H](CCCCN)NC(=O)[C@H](C(C)C)NC(=O)[C@@H]2CCCN2C(=O)[C@@H](Cc2ccc(O)cc2)NC(=O)[C@H](C)NC(=O)[C@H](CCCCN)NC1=O [L3/A3] | 200 µg/mL | 75 µg/mL | 200 µg/mL | 200 µg/mL | >200 µg/mL | 100 µg/mL | >200 µg/mL | >200 µg/mL | >200 µg/mL | >200 µg/mL | >200 µg/mL | 100 µg/mL | >200 µg/mL | >800 µg/mL | 243 µM
CC(C)C[C@@H]1NC(=O)[C@H](CCCCN)NC(=O)[C@H](C)NC(=O)[C@@H]2CCCN2C(=O)[C@@H](Cc2ccc(O)cc2)NC(=O)[C@H](CC(C)C)NC(=O)[C@H](CCCCN)NC(=O)[C@H](C)NC(=O)[C@H](CCCCN)NC(=O)[C@H](CC(C)C)NC(=O)[C@@H]2CCCN2C(=O)[C@@H](Cc2ccc(O)cc2)NC(=O)[C@H](C)NC(=O)[C@@H](CCCCN)NC1=O [V3/A3] | 75 µg/mL | 18 µg/mL | 12.5 µg/mL | 9 µg/mL | 35 µg/mL | 62 µg/mL | >200 µg/mL | >200 µg/mL | 50 µg/mL | >200 µg/mL | >200 µg/mL | 3.1 µg/mL | 50 µg/mL | >800 µg/mL | 163 µM
CC(C)C[C@@H]1NC(=O)[C@H](CCCCN)NC(=O)[C@H](CC(C)C)NC(=O)[C@@H]2CCCN2C(=O)[C@@H](Cc2ccc(O)cc2)NC(=O)[C@H](CC(C)C)NC(=O)[C@@H](CCCCN)NC(=O)[C@H](CC(C)C)NC(=O)[C@H](CCCCN)NC(=O)[C@H](CC(C)C)NC(=O)[C@@H]2CCCN2C(=O)[C@@H](Cc2ccc(O)cc2)NC(=O)[C@H](CC(C)C)NC(=O)[C@H](CCCCN)NC1=O [V3/L3] | 100 µg/mL | 3.1 µg/mL | 6.2 µg/mL | 3.1 µg/mL | 100 µg/mL | 15 µg/mL | 25 µg/mL | 12.5 µg/mL | 1.5 µg/mL | 9 µg/mL | 1.5 µg/mL | 1 µg/mL | 4 µg/mL | 25 µg/mL | 46 µM
